The values below come from patent publication US10556907B2 (AbbVie Inc., priority 2015, dated 2020).

Where only a bound is given, the exact number is not on record here.

Common to all, as to experiment: Method 1: intracellular Ca2+ release (FLIPR, Calcium 5) in recombinant CHO-K1 cells
Holding throughout (type): cell-based

For experiment [1], the target named is T1, human S1PR1 receptor (Homo sapiens, UniProt P21453).
T1 construct: host or cells: CHO-K1
The note with it: (1): determined with method 1; read-out: S1P1 EC50. The method, boiled down:
(§1)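 Agonist EC50; CHO-K1 + Gq/i5 + aequorin; Calcium 5 dye 1 h 37 °C, 45 min RT; serial-dilution compound add; FLIPR read; normalized to phospho-fingolimod.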

Experiment [2] concerns the target T2, human S1PR3 receptor (Homo sapiens, UniProt Q99500).
T2 construct: host or cells: CHO-K1
Conditions: (1): determined with method 1; read-out: S1P3 EC50. In short, it runs like this:
as §1

Experiment [3] has as its target T3, human S1PR4 receptor (Homo sapiens, UniProt O95977).
T3 construct: host or cells: CHO-K1
T3 sequence (O95977 1-384): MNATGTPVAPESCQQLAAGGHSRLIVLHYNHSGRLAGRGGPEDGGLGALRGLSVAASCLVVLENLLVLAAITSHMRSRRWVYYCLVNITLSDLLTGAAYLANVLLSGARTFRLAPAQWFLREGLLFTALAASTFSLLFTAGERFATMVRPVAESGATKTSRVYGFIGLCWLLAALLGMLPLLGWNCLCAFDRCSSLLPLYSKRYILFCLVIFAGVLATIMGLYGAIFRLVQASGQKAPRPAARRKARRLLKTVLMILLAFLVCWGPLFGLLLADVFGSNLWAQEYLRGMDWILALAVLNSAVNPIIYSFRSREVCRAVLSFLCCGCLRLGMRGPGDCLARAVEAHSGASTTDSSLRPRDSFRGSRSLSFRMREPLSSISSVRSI
Conditions: (1): determined with method 1; read-out: S1P4 EC50. The method, boiled down: as §1

In experiment [4] the target is T4, human S1PR5 receptor (Homo sapiens, UniProt Q9H228).
T4 construct: host or cells: CHO-K1
The note with it: agonist potency, determined with method 1 (symbols A-D); read-out: S1P5 EC50 range. The method, boiled down:
as §1

T4 sequence (Q9H228 whole entry): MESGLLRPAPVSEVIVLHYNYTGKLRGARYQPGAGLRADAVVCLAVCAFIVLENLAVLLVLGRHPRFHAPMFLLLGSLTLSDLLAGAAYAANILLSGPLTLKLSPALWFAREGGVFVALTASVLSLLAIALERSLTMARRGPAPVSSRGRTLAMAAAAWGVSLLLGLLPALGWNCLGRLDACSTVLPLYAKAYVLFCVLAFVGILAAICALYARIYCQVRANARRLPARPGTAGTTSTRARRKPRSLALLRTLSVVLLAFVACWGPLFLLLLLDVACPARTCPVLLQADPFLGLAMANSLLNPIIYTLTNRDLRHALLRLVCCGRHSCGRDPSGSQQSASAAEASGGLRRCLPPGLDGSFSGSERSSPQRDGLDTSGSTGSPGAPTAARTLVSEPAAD
T1 sequence (P21453 whole entry): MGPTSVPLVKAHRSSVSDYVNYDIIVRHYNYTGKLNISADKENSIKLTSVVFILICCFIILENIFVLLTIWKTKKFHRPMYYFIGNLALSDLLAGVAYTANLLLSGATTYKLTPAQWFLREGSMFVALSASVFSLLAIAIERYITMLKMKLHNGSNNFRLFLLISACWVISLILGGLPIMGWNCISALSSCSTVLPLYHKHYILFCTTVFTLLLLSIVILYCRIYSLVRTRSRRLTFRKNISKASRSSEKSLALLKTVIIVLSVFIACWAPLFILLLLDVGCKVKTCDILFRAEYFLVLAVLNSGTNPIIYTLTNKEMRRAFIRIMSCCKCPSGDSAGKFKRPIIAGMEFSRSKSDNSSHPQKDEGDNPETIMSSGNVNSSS
T2 sequence (Q99500 whole entry): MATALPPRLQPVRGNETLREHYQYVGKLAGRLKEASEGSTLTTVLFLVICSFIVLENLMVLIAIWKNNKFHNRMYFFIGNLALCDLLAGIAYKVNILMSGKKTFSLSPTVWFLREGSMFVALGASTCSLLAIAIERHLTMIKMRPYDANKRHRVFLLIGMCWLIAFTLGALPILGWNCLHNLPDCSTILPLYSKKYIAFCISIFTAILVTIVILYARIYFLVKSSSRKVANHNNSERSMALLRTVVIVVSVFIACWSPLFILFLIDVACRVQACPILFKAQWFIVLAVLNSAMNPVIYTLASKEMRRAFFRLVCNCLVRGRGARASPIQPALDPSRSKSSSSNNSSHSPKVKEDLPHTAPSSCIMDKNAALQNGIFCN

In general, EC50 refers to the concentration needed to bring the measured effect to its halfway point. Take `O=C(O)CCN1CCc2nc(-c3ccc(OCc4ccc(OC(F)(F)F)cc4)cc3)ncc2C1` [Compound 85, 3-(2-(4-((4-(trifluoromethoxy)benzyl)oxy)phenyl)-7,8-dihydropyrido[4,3-d]pyrimidin-6(5H)-yl)propanoic acid]: the EC50 in experiment [1] is greater than 1 µM; in experiment [2] it was greater than 1 µM; in experiment [3], greater than 1 µM; in experiment [4] it was less than 0.01 µM.
As to `CC(C)(C)c1ccc(COc2ccc(-c3ncc4c(n3)CCN(CCC(=O)O)C4)cc2)cc1` [Compound 87, 3-(2-(4-((4-(tert-butyl)benzyl)oxy)phenyl)-7,8-dihydropyrido[4,3-d]pyrimidin-6(5H)-yl)propanoic acid], the EC50 is greater than 1 µM in experiment [1], greater than 1 µM in experiment [2], greater than 1 µM in experiment [3] and 0.01 to 0.1 µM in experiment [4].
Consider `Cc1ccc(C(F)(F)F)cc1COc1ccc(-c2ncc3c(n2)CCN(CCC(=O)O)C3)cc1` [Compound 88, 3-(2-(4-((2-methyl-5-(trifluoromethyl)benzyl)oxy)phenyl)-7,8-dihydropyrido[4,3-d]pyrimidin-6(5H)-yl)propanoic acid], for which the concentration for a half-maximal effect (EC50) in experiment [1] is greater than 1 µM; in experiment [2], greater than 1 µM; in experiment [3], greater than 1 µM; in experiment [4], less than 0.01 µM.
Take `Cc1ccc(COc2ccc(-c3ncc4c(n3)CCN(CCC(=O)O)C4)cc2)cc1C(F)(F)F` [Compound 89, 3-(2-(4-((4-methyl-3-(trifluoromethyl)benzyl)oxy)phenyl)-7,8-dihydropyrido[4,3-d]pyrimidin-6(5H)-yl)propanoic acid]: the EC50 is greater than 1 µM in experiment [1], greater than 1 µM in experiment [2], greater than 1 µM in experiment [3] and less than 0.01 µM in experiment [4].
In the case of `CCc1cccc(Cl)c1COc1ncc2c(n1)CCN(CCC(=O)O)C2` [Compound 96, 3-(2-((2-chloro-6-ethylbenzyl)oxy)-7,8-dihydropyrido[4,3-d]pyrimidin-6(5H)-yl)propanoic acid], the EC50 was greater than 1 µM in experiment [1], greater than 1 µM in experiment [2], greater than 1 µM in experiment [3] and 1 to 10 µM in experiment [4].
Regarding `Cc1cc(-c2ccc3c(n2)CCN(CCCC(=O)O)C3)ccc1OCc1ccccc1` [Compound 114, 4-(2-(4-(benzyloxy)-3-methylphenyl)-7,8-dihydro-1,6-naphthyridin-6(5H)-yl)butanoic acid], the EC50 in experiment [1] was greater than 1 µM; in experiment [2] it was greater than 1 µM; in experiment [3], greater than 1 µM; in experiment [4] it was less than 0.01 µM.
With `CCc1cccc(Cl)c1COc1ccc2c(n1)CCN(C1CC(C(=O)O)C1)C2` (stereo not drawn) [Compound 118, 3-(2-((2-chloro-6-ethylbenzyl)oxy)-7,8-dihydro-1,6-naphthyridin-6(5H)-yl)cyclobutanecarboxylic acid], the EC50 in experiment [1] was greater than 1 µM; in experiment [2], greater than 1 µM; in experiment [3], greater than 1 µM; in experiment [4], less than 0.01 µM.
For the compound `O=C(O)C1CC(N2CCc3nc(C#Cc4ccccc4)ccc3C2)C1` (stereo not drawn) [Compound 119, 3-(2-(phenylethynyl)-7,8-dihydro-1,6-naphthyridin-6(5H)-yl)cyclobutanecarboxylic acid], the EC50 in experiment [1] was greater than 1 µM; in experiment [2], greater than 1 µM; in experiment [3], greater than 1 µM; in experiment [4], 1 to 10 µM.
On to `O=C(O)C1CC(N2CCc3nc(C#Cc4ccc(Cl)cc4)ccc3C2)C1` (stereo not drawn) [Compound 120, 3-(2-((4-chlorophenyl)ethynyl)-7,8-dihydro-1,6-naphthyridin-6(5H)-yl)cyclobutanecarboxylic acid], for which the EC50 in experiment [1] was greater than 1 µM; in experiment [2] it was greater than 1 µM; in experiment [3] it was greater than 1 µM; in experiment [4], 1 to 10 µM.
In the case of `Cc1ccccc1C#Cc1ccc2c(n1)CCN(C1CC(C(=O)O)C1)C2` (stereo not drawn) [Compound 121, 3-(2-(o-tolylethynyl)-7,8-dihydro-1,6-naphthyridin-6(5H)-yl)cyclobutanecarboxylic acid], the EC50 is greater than 1 µM in experiment [1], greater than 1 µM in experiment [2], greater than 1 µM in experiment [3] and 1 to 10 µM in experiment [4].
For `CCOc1ccc(C#Cc2ccc3c(n2)CCN(C2CC(C(=O)O)C2)C3)cc1` (stereo not drawn) [Compound 122, 3-(2-((4-ethoxyphenyl)ethynyl)-7,8-dihydro-1,6-naphthyridin-6(5H)-yl)cyclobutanecarboxylic acid], the EC50 in experiment [1] is greater than 1 µM; in experiment [2], greater than 1 µM; in experiment [3], greater than 1 µM; in experiment [4] it was 1 to 10 µM.
With `O=C(O)C1CC(N2CCc3nc(C#Cc4ccc(F)cc4)ccc3C2)C1` (stereo not drawn) [Compound 123, 3-(2-((4-fluorophenyl)ethynyl)-7,8-dihydro-1,6-naphthyridin-6(5H)-yl)cyclobutanecarboxylic acid], the EC50 in experiment [1] was greater than 1 µM; in experiment [2] it was greater than 1 µM; in experiment [3] it was greater than 1 µM; in experiment [4], 1 to 10 µM.
On to `CC(C)c1ccc(C#Cc2ccc3c(n2)CCN(C2CC(C(=O)O)C2)C3)cc1` (stereo not drawn) [Compound 124, 3-(2-((4-isopropylphenyl)ethynyl)-7,8-dihydro-1,6-naphthyridin-6(5H)-yl)cyclobutanecarboxylic acid], for which the EC50 in experiment [1] is greater than 1 µM; in experiment [2], greater than 1 µM; in experiment [3], greater than 1 µM; in experiment [4], 1 to 10 µM.
Regarding `O=C(O)C1CC(N2CCc3nc(C#Cc4ccc(OCc5ccccc5)cc4)ccc3C2)C1` (stereo not drawn) [Compound 125, 3-(2-((4-(benzyloxy)phenyl)ethynyl)-7,8-dihydro-1,6-naphthyridin-6(5H)-yl)cyclobutanecarboxylic acid], the half-maximal effective concentration (EC50) in experiment [1] is greater than 1 µM; in experiment [2] it was greater than 1 µM; in experiment [3], greater than 1 µM; in experiment [4], 0.1 to 1 µM.
In the case of `O=C(O)C1CC(N2CCc3nc(C#Cc4ccccc4Cl)ccc3C2)C1` (stereo not drawn) [Compound 126, 3-(2-((2-chlorophenyl)ethynyl)-7,8-dihydro-1,6-naphthyridin-6(5H)-yl)cyclobutanecarboxylic acid], the EC50 is greater than 1 µM in experiment [1], greater than 1 µM in experiment [2], greater than 1 µM in experiment [3] and 1 to 10 µM in experiment [4].
With `O=C(O)C1CC(N2CCc3nc(C#Cc4cc(F)cc(F)c4)ccc3C2)C1` (stereo not drawn) [Compound 127, 3-(2-((3,5-difluorophenyl)ethynyl)-7,8-dihydro-1,6-naphthyridin-6(5H)-yl)cyclobutanecarboxylic acid], the EC50 in experiment [1] was greater than 1 µM; in experiment [2], greater than 1 µM; in experiment [3], greater than 1 µM; in experiment [4], 1 to 10 µM.
For `O=C(O)C1CC(N2CCc3nc(C#Cc4cccc(Cl)c4)ccc3C2)C1` (stereo not drawn) [Compound 128, 3-(2-((3-chlorophenyl)ethynyl)-7,8-dihydro-1,6-naphthyridin-6(5H)-yl)cyclobutanecarboxylic acid], the EC50 in experiment [1] was greater than 1 µM; in experiment [2] it was greater than 1 µM; in experiment [3], greater than 1 µM; in experiment [4] it was 1 to 10 µM.
For `O=C(O)CCN1CCc2nc(-c3ccc(OCc4cccc(F)c4)cc3)ccc2C1` [Compound 133, 3-(2-(4-((3-fluorobenzyl)oxy)phenyl)-7,8-dihydro-1,6-naphthyridin-6(5H)-yl)propanoic acid], the EC50 in experiment [1] was greater than 1 µM; in experiment [2] it was greater than 1 µM; in experiment [3] it was greater than 1 µM; in experiment [4], less than 0.01 µM.
